From paper PMC7576278, “IKKε and TBK1 in diffuse large B‐cell lymphoma: A possible mechanism of action of an IKKε/TBK1 inhibitor to repress NF‐κB and IL‐10 signalling” (Journal of Cellular and Molecular Medicine, 2020) come the findings set out here.

One assay deals with T1, IKKε (Homo sapiens, UniProt Q14164).
T1 construct: gene IKBKE
T1 sequence (Q14164 1-716): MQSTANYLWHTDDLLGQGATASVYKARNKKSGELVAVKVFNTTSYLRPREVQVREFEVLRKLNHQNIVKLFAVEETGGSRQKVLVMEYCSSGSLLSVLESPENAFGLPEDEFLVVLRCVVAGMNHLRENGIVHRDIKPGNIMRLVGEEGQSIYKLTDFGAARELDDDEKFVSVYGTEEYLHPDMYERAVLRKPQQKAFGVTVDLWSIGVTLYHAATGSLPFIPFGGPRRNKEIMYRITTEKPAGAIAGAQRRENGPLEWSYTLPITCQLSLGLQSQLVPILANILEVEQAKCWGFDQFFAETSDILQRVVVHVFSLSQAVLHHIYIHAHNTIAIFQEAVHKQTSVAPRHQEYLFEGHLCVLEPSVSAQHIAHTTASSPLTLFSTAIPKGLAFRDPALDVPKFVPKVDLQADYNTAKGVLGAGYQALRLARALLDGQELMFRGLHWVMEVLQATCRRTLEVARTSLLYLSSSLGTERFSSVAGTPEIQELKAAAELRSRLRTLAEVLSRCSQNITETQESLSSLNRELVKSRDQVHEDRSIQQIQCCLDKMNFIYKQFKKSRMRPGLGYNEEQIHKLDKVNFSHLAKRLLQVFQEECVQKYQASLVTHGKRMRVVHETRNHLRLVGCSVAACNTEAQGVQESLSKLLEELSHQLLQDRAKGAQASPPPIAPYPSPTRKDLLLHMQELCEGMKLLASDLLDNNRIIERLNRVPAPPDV
Kind of assay: purified enzyme inhibition (pIC50; assay details not given). The class given is biochemical.

The target in a further assay is T2, TBK1 (Homo sapiens, UniProt Q9UHD2).
T2 sequence (Q9UHD2 1-729): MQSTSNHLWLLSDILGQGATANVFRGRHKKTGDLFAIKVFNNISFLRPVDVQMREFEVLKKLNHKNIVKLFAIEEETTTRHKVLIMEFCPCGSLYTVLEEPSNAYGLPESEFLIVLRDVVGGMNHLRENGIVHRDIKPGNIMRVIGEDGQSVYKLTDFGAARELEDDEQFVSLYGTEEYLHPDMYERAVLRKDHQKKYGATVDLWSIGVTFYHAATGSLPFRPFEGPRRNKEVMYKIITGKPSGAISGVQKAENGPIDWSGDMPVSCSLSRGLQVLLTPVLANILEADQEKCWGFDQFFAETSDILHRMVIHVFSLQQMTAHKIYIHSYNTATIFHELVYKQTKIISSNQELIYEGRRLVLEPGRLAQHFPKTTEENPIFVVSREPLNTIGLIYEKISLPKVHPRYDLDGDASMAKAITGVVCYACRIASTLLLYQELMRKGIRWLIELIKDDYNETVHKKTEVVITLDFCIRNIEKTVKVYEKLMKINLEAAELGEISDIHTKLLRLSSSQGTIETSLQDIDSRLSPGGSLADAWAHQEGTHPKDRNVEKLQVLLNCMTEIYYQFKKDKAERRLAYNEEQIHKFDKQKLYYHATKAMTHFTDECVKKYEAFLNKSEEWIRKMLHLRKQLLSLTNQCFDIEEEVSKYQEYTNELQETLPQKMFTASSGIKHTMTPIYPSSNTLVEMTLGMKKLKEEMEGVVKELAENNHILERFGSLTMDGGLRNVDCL
The description is as above. The class given is biochemical.

The structures appear in SMILES notation.

The term IC50 denotes the concentration at which inhibition is half-maximal. On to `N#Cc1cc(-c2ccnc(Nc3ccc(NC(=O)CN4CCOCC4)nc3)n2)cnc1N1CC[C@H](F)C1` [DMX3433], for which the figures for the IC50 against IKKε and against TBK1 were 15.8 nM and 12.6 nM, respectively.
